Read-outs that look alike come from different tables or passages of the source.
Experiments:
[1] = system: Phakopsora pachyrhizi; test: Asian soybean rust, whole-plant fungicidal activity (PHAKPA); type: in vivo; conditions: read-out: % Disease Control Rating PHAKPA
Outline: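 Ten-day-old 'Williams 82' soybean seedlings sprayed to run-off with compound in acetone/water (1:9, 0.011% Tween-20), air-dried, then inoculated; 24 h dark dew room at 100% RH, then growth room. Disease severity scored 0–100% on sprayed leaves; percent control relative to untreated plants.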

[2] = system: Zymoseptoria tritici; test: Septoria leaf blotch of wheat, whole-plant fungicidal activity (SEPTTR); type: in vivo, Zymoseptoria tritici on wheat plants (variety 'Yuma'); conditions: read-out: % Disease Control Rating SEPTTR
Outline: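 Compounds in acetone, diluted with nine volumes of water containing 110 ppm Triton X-100, were sprayed to run-off on 'Yuma' wheat seedlings at full first-leaf emergence. Spore inoculation was 3 days before (3DC, curative) or 1 day after (1DP, protectant) treatment, then 3 days at 100% RH and greenhouse. First-leaf disease severity (0–100%) was scored relative to untreated plants as percent control.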

[3] = system: Rhynchosporium commune; test: Leaf blotch of barley, whole-plant fungicidal activity (RHYNSE); type: in vivo; conditions: 24 h, 1DP (1 day protectant), read-out: % Disease Control Rating RHYNSE
Outline: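 Barley cv. 'Harrington' at full first-leaf emergence (7-10 seedlings per pot) was sprayed to run-off with compound in acetone plus nine volumes of water containing 110 ppm Triton X-100, air-dried, then inoculated with spore suspension. Plants spent two days in a dark dew room at 100% RH, then moved to greenhouse for disease development.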

[4] = system: Puccinia triticina; test: Wheat brown rust, whole-plant fungicidal activity (PUCCRT); type: in vivo, Puccinia triticina on wheat plants (variety 'Yuma'); conditions: 24 h, 1DP (1 day protectant), read-out: % Disease Control Rating PUCCRT
Outline: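 Wheat 'Yuma' seedlings at first-leaf stage sprayed to run-off with compound from acetone stock diluted in nine volumes water containing 110 ppm Triton X-100, then inoculated with Puccinia triticina spores. Held overnight in dark dew room at 100% RH, then greenhouse for disease development.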

[5] = system: Cochliobolus sativus; test: Spot blotch of barley, whole-plant fungicidal activity (COCHSA); type: in vivo; conditions: 1DP (1 day protectant), 200 ppm
Experimental: Technical grades of materials were dissolved in acetone, which were then mixed with nine volumes of water (H2O) containing 110 ppm Triton X-100. The fungicide solutions were applied onto wheat seedlings using an automated booth sprayer to run-off. All sprayed plants were allowed to air dry prior to further handling. All fungicides were evaluated using the aforementioned method for their activity vs. all target diseases, unless stated otherwise. Example E. Evaluation of Fungicidal Activity: Spot Blotch of Barley (Cochliobolus sativus Bayer Code COCHSA) Barley seedlings (variety ‘Harrington’) were propagated in soil-less potting mix, with each pot having 8 to 12 plants, and used for testing when the first leaf was fully emerged. Test plants were inoculated with a spore suspension of Cochliobolus sativus 24 h after fungicide treatments. After inoculation the plants were kept in […] for two days to permit spores to germinate and infect the leaf. The plants were then transferred to a greenhouse for disease to develop. Fungicide formulation, application and disease assessment followed the procedures as described in Example A.

In the case of `CCN(C)/C=N/c1cc(C)c(C(=O)CC2CCCC2)cc1C` [Compound 4], the pest or weed control at 200 ppm ([1]; 24 h, 1DP (1 day protectant)) is reported as > 85%, the pest or weed control at 200 ppm ([1]; 72 h, 3DC (3 day curative)) is reported as > 85% and the pest or weed control at 200 ppm ([2]; 24 h, 1DP (1 day protectant)) is reported as > 85%. For the same compound, the pest or weed control at 200 ppm ([2]; 72 h, 3DC (3 day curative)) was 50 to 85%, the pest or weed control at 200 ppm [3] was > 85% and the pest or weed control at 200 ppm [4] was > 85%. The “% Disease Control Rating COCHSA” value [5] was “A (>85%)”.
For `CCN(C)/C=N/c1ccc(C(=O)Cc2cccc(C(F)(F)F)c2)c(C)c1C` [Compound 10], the pest or weed control at 200 ppm ([1]; 24 h, 1DP (1 day protectant)) was > 85%, the pest or weed control at 200 ppm ([1]; 72 h, 3DC (3 day curative)) was > 85% and the pest or weed control at 200 ppm ([2]; 24 h, 1DP (1 day protectant)) was < 20%. The pest or weed control at 200 ppm ([2]; 72 h, 3DC (3 day curative)) was < 20%, the melting point was 53 to 57 °C and the pest or weed control at 200 ppm [3] was 20 to 50%. For the same compound, the pest or weed control at 200 ppm [4] was < 20%.
With `CCN(C)/C=N/c1cc(C)c(C(=O)Cc2ccc(C)cc2)cc1C` [Compound 9] the pest or weed control at 200 ppm ([1]; 24 h, 1DP (1 day protectant)) was > 85%, the pest or weed control at 200 ppm ([1]; 72 h, 3DC (3 day curative)) was > 85% and the pest or weed control at 200 ppm ([2]; 24 h, 1DP (1 day protectant)) was < 20%. For the same compound, the pest or weed control at 200 ppm ([2]; 72 h, 3DC (3 day curative)) was < 20%, the melting point was 90 to 93 °C and the pest or weed control at 200 ppm [3] was > 85%. For the same compound, the pest or weed control at 200 ppm [4] was > 85% and the “% Disease Control Rating COCHSA” value [5] was “A (>85%)”.
With `CCN(C)/C=N/c1cc(C)c(C(=O)Cc2ccc(C)cc2F)cc1C` [Compound 7] the pest or weed control at 200 ppm ([1]; 24 h, 1DP (1 day protectant)) was > 85%, the pest or weed control at 200 ppm ([1]; 72 h, 3DC (3 day curative)) was > 85% and the pest or weed control at 200 ppm ([2]; 24 h, 1DP (1 day protectant)) was 20 to 50%. The pest or weed control at 200 ppm ([2]; 72 h, 3DC (3 day curative)) was < 20%, the melting point was 102 to 105 °C and the pest or weed control at 200 ppm [3] was > 85%. The pest or weed control at 200 ppm [4] was > 85%.
